Experimental data: ChEMBL document CHEMBL1130372, “Synthesis and evaluation of putative oxocarbenium intermediate mimic in the KDO8P synthase-catalyzed reaction as a tool for the design of potent inhibitors for lipopolysaccharide biosynthesis” (Bioorg Med Chem Lett, 1997)

Experiment: The inhibitory activity was evaluated against homogeneous KDO 8-P synthase from Escherichia coli by varying PEP at saturating concentrations of A5P (0.5 mM)

O=C(O)CN(CC(O)C(O)C(O)[C@H](O)COP(=O)(O)O)CP(=O)(O)O (stereo partly specified)
Ki: 3.3 µM
